Experimental findings from PubChem BioAssay AID248 (DTP/NCI, 2004) are described below.

This experiment has as its system L1210 leukemia ip in BDF1 mice, survival T/C. Nature of the experiment: NCI In Vivo Anticancer Drug Screen. Data for tumor model L1210 Leukemia (intraperitoneal) in B6D2F1 (BDF1) mice. Particulars: endpoint: mean survival time, higher = longer survival. The essentials:
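Ratio derived from survival: compound-dosed mice over vehicle-dosed mice, all bearing a transplantable tumor.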

Setting [1] is: dose: 100.0 mg/kg/injection, schedule: Q04DX003 (ip), vehicle: Klucel (hydroxypropylcellulose) (HPC).
The mark [2] stands for this setting: dose: 200.0 mg/kg/injection, schedule: Q04DX003 (ip), vehicle: Klucel (hydroxypropylcellulose) (HPC).
Setting [3] is: dose: 400.0 mg/kg/injection, schedule: Q04DX003 (ip), vehicle: Klucel (hydroxypropylcellulose) (HPC).
Setting [4] is: dose: 100.0 mg/kg/injection, schedule: Q01DX001 (ip), vehicle: carboxymethylcellulose (CMC).
Setting [5] is: dose: 200.0 mg/kg/injection, schedule: Q01DX001 (ip), vehicle: carboxymethylcellulose (CMC).
The mark [6] stands for this setting: dose: 400.0 mg/kg/injection, schedule: Q01DX001 (ip), vehicle: carboxymethylcellulose (CMC).
The mark [7] stands for this setting: dose: 50.0 mg/kg/injection, schedule: Q01DX001 (ip), vehicle: saline.
Where [8] appears, read: dose: 100.0 mg/kg/injection, schedule: Q01DX001 (ip), vehicle: saline.
The mark [9] stands for this setting: dose: 200.0 mg/kg/injection, schedule: Q01DX001 (ip), vehicle: saline.
Setting [10] is: dose: 50.0 mg/kg/injection, schedule: Q01DX001 (ip), vehicle: carboxymethylcellulose (CMC).

Toxic doses and inconclusive results are not listed.

For the compound `O=C(Cl)c1ccccc1S(=O)(=O)N(CCOc1ccccc1)c1ccccc1`, the T/C is 97 % of control (dose: 100.0 mg/kg/injection, schedule: Q01DX009 (ip), vehicle: Klucel (hydroxypropylcellulose) (HPC)); 96 % of control under setting [1]; 98 % of control (dose: 200.0 mg/kg/injection, schedule: Q01DX009 (ip), vehicle: Klucel (hydroxypropylcellulose) (HPC)); 91 % of control under setting [2]; 97 % of control (dose: 400.0 mg/kg/injection, schedule: Q01DX009 (ip), vehicle: Klucel (hydroxypropylcellulose) (HPC)); 86 % of control under setting [3].

For the compound `O=[N+]([O-])c1c(Br)ncn1Cc1ccccc1`, the T/C is 99 % of control (dose: 100.0 mg/kg/injection, schedule: Q04DX003 (ip), vehicle: acetone) and 96 % of control (dose: 200.0 mg/kg/injection, schedule: Q04DX003 (ip), vehicle: acetone).

With `Cc1ccnc(NS(=O)(=O)c2ccc(N=Nc3c(N)n(C)c(=O)n(C)c3=O)cc2)n1`, the T/C is 98 % of control under setting [4], 93 % of control under setting [5] and 95 % of control under setting [6].

Take `CC(C)(C#N)CCCCC(C)(C)C#N`: the T/C was 105 % of control under setting [7]; 108 % of control under setting [8]; 102 % of control under setting [9]; 100 % of control (dose: 400.0 mg/kg/injection, schedule: Q01DX001 (ip), vehicle: saline).

As to `CC(=O)N1CSCC1C(=O)O` (stereo not given), the T/C under setting [1] is 89 % of control, the T/C under setting [2] is 94 % of control and the T/C under setting [3] was 91 % of control.

As for `CCCCOC(=O)c1ccc(NC(=O)Nc2c(C)cccc2C)cc1`, the T/C (dose: 100.0 mg/kg/injection, schedule: Q01DX009 (ip), vehicle: other) is 98 % of control; the T/C (dose: 200.0 mg/kg/injection, schedule: Q01DX009 (ip), vehicle: other) is 89 % of control; the T/C (dose: 400.0 mg/kg/injection, schedule: Q01DX009 (ip), vehicle: other) is 89 % of control.

Regarding `CCCCCCCCP(=O)(N1CC1CC)N1CC1CC` (stereo not given), the T/C was 101 % of control under setting [7], 103 % of control under setting [8] and 101 % of control under setting [9].

Turning to `OCCOc1ccc(Br)cc1`, the T/C runs as follows: (dose: 100.0 mg/kg/injection, schedule: Q04DX002 (ip), vehicle: Klucel (hydroxypropylcellulose) (HPC)) 92 % of control; (dose: 200.0 mg/kg/injection, schedule: Q04DX002 (ip), vehicle: Klucel (hydroxypropylcellulose) (HPC)) 95 % of control; (dose: 400.0 mg/kg/injection, schedule: Q04DX002 (ip), vehicle: Klucel (hydroxypropylcellulose) (HPC)) 92 % of control.

`O=NN1C(=O)N[C@@H]2[C@H]1CS[C@@H]2CCCCC(=O)O`: the T/C is, setting by setting: under setting [10], 101 % of control; under setting [4], 96 % of control; under setting [5], 101 % of control; (dose: 300.0 mg/kg/injection, schedule: Q01DX001 (ip), vehicle: carboxymethylcellulose (CMC)) 95 % of control; under setting [6], 95 % of control; (dose: 600.0 mg/kg/injection, schedule: Q01DX001 (ip), vehicle: carboxymethylcellulose (CMC)) 87 % of control. Besides, the T/C (dose: 800.0 mg/kg/injection, schedule: Q01DX001 (ip), vehicle: carboxymethylcellulose (CMC)) is 90 % of control.

With `NC(N)=N/N=C/c1ccncc1`, the T/C is 104 % of control (dose: 15.0 mg/kg/injection, schedule: Q01DX Z (ip), vehicle: saline); 104 % of control (dose: 25.0 mg/kg/injection, schedule: Q01DX009 (ip), vehicle: saline); 91 % of control (dose: 30.0 mg/kg/injection, schedule: Q01DX Z (ip), vehicle: saline); 101 % of control (dose: 50.0 mg/kg/injection, schedule: Q01DX009 (ip), vehicle: saline); 107 % of control (dose: 60.0 mg/kg/injection, schedule: Q01DX Z (ip), vehicle: saline); 100 % of control (dose: 60.0 mg/kg/injection, schedule: Q01DX Z (oral), vehicle: saline). Besides, the T/C is, setting by setting: (dose: 100.0 mg/kg/injection, schedule: Q01DX009 (ip), vehicle: saline) 104 % of control; (dose: 120.0 mg/kg/injection, schedule: Q01DX Z (ip), vehicle: saline) 105 % of control; (dose: 120.0 mg/kg/injection, schedule: Q01DX Z (oral), vehicle: saline) 97 % of control; (dose: 150.0 mg/kg/injection, schedule: Q01DX009 (ip), vehicle: saline) 106 % of control; (dose: 240.0 mg/kg/injection, schedule: Q01DX Z (oral), vehicle: saline) 103 % of control.

Turning to `CCCCCCCCCCCCCCCCC(/C=N/N=C(N)N)=N\N=C(N)N`, the T/C was 95 % of control (dose: 15.0 mg/kg/injection, schedule: Q01DX Z (ip), vehicle: methylcellulose (MC)); 98 % of control (dose: 30.0 mg/kg/injection, schedule: Q01DX Z (ip), vehicle: methylcellulose (MC)); 110 % of control (dose: 60.0 mg/kg/injection, schedule: Q01DX Z (ip), vehicle: methylcellulose (MC)); 103 % of control (dose: 120.0 mg/kg/injection, schedule: Q01DX Z (ip), vehicle: methylcellulose (MC)); 101 % of control (dose: 240.0 mg/kg/injection, schedule: Q01DX Z (ip), vehicle: methylcellulose (MC)); 97 % of control (dose: 360.0 mg/kg/injection, schedule: Q01DX Z (ip), vehicle: methylcellulose (MC)). The T/C by setting is: (dose: 480.0 mg/kg/injection, schedule: Q01DX Z (ip), vehicle: methylcellulose (MC)) 98 % of control; (dose: 720.0 mg/kg/injection, schedule: Q01DX Z (oral), vehicle: methylcellulose (MC)) 97 % of control; (dose: 960.0 mg/kg/injection, schedule: Q01DX Z (oral), vehicle: methylcellulose (MC)) 93 % of control.

In the case of `O=NN(CCCl)C(=O)NC1(C(=O)O)CCCC1`, the T/C by setting is: (dose: 15.0 mg/kg/injection, schedule: Q01DX001 (ip), vehicle: saline with Tween-80) 109 % of control; (dose: 23.0 mg/kg/injection, schedule: Q01DX001 (ip), vehicle: saline with Tween-80) 113 % of control; (dose: 50.0 mg/kg/injection, schedule: Q01DX001 (ip), vehicle: Klucel (hydroxypropylcellulose) (HPC)) 121 % of control; (dose: 75.0 mg/kg/injection, schedule: Q01DX001 (ip), vehicle: Klucel (hydroxypropylcellulose) (HPC)) 172 % of control; (dose: 75.0 mg/kg/injection, schedule: Q01DX001 (ip), vehicle: carboxymethylcellulose (CMC)) 162 % of control; (dose: 80.0 mg/kg/injection, schedule: Q01DX001 (ip), vehicle: saline with Tween-80) 152 % of control. The T/C is, setting by setting: (dose: 112.0 mg/kg/injection, schedule: Q01DX001 (ip), vehicle: Klucel (hydroxypropylcellulose) (HPC)) 243 % of control; (dose: 112.0 mg/kg/injection, schedule: Q01DX001 (ip), vehicle: carboxymethylcellulose (CMC)) 168 % of control; (dose: 119.0 mg/kg/injection, schedule: Q01DX001 (ip), vehicle: saline with Tween-80) 252 % of control; (dose: 168.0 mg/kg/injection, schedule: Q01DX001 (ip), vehicle: Klucel (hydroxypropylcellulose) (HPC)) 310 % of control; (dose: 168.0 mg/kg/injection, schedule: Q01DX001 (ip), vehicle: carboxymethylcellulose (CMC)) 272 % of control; (dose: 178.0 mg/kg/injection, schedule: Q01DX001 (ip), vehicle: saline with Tween-80) 274 % of control. The T/C is, setting by setting: (dose: 252.0 mg/kg/injection, schedule: Q01DX001 (ip), vehicle: Klucel (hydroxypropylcellulose) (HPC)) 106 % of control; (dose: 252.0 mg/kg/injection, schedule: Q01DX001 (ip), vehicle: carboxymethylcellulose (CMC)) 89 % of control; (dose: 266.0 mg/kg/injection, schedule: Q01DX001 (ip), vehicle: saline with Tween-80) 246 % of control.

`O=[N+]([O-])c1ccc(OC(=S)Oc2ccc([N+](=O)[O-])cc2)cc1`: the T/C is, setting by setting: under setting [10], 103 % of control; under setting [4], 105 % of control; under setting [5], 97 % of control; under setting [6], 100 % of control.

As to `Cn1cnc([N+](=O)[O-])c1[Se]c1nc(N)nc2nc[nH]c12`, the T/C was 159 % of control (dose: 25.0 mg/kg/injection, schedule: Q01DX005 (ip), vehicle: other) and 92 % of control (dose: 50.0 mg/kg/injection, schedule: Q01DX005 (ip), vehicle: other).
